Experimental data published in patent US20260256860A1, “TRADITIONAL CHINESE MEDICINE COMPOSITION FOR TREATING AMYOTROPHIC LATERAL SCLEROSIS AND USE THEREOF” (HEBEI YILING MEDICAL RESEARCH INSTITUTE CO., LTD, priority 2023, published 2026).
Several values for one entry are separate records, joined by “and”; a condition that tells them apart may be missing. Equal values may be shown once.

Assays:
Type in all cases: in vivo
[1] = system: SOD1-G93A transgenic mice; assay: Neurological function score (Snow scoring) in SOD1-G93A transgenic mice; conditions: Riluzole 0.02 g/kg gavage
Protocol: (§1) After ALS model mice were determined to have significant changes compared to negative control mice in behavioral test by combining literature as well as prior experience, they were randomly grouped according to their body weight. The drug administration was started and mice were observed.
(§2) The corresponding drug solution was administered via gavage using a syringe at a volume of 10 ml/kg. The model group and negative control group were administered with an equivalent volume of sterile injectable water. The administration dose for each animal was adjusted weekly according to the animal's latest weighed weight.
Neurological function was evaluated during the dosing phase using the Snow scoring method twice weekly. The specific criteria for neurological system scoring are as follows. • 1.0 point—Abnormal extension or tremors of hind limbs of the mouse when suspended by tail. • 1.5 points—Weakness of unilateral hind limb • 2.0 points—Weakness of bilateral hind limbs along with abnormal gait. • 2.5 points—Obvious weakness of unilateral hind limb. • 3.0 points—Obvious weakness of bilateral hind limbs. • 3.5 points—Paralysis in unilateral hind limb. • 4.0 points—Paralysis in bilateral hind limbs. • 5.0 points—Inability of mouse to right itself from a supine position within 20 seconds.

[2] = system: SOD1-G93A transgenic mice; assay: Serum malondialdehyde (MDA) in SOD1-G93A transgenic mice; conditions: Mus musculus, po, 720 h; read-out: % Inhibition rate (on oxidative damage, from MDA content)
Protocol: Blood of mice was collected by removal of eyeball. The blood samples were allowed to stand until supernatant separated out, and then centrifuged at 3,000 rpm for 10 minutes at 4° C. to isolate serum. The serum was aliquoted into EP tubes and stored in an ultra-low temperature refrigerator (−80° C.). MDA content was measured. The inhibition rate on oxidative damage by each drug group was calculated according to MDA content, following the formula of.
Blood of mice was collected by removal of eyeball. Blood samples were allowed to stand until supernatant separated out, and then centrifuged at 3,000 rpm for 10 minutes at 4° C. to isolate serum. The MDA content was measured using a kit, and the inhibition rate on oxidative damage by each drug group was calculated according to MDA content.

[3] = system: SOD1-G93A transgenic mice; assay: Time to onset of paralysis in SOD1-G93A transgenic mice; conditions: Riluzole 0.02 g/kg gavage
Protocol: Neurological function was evaluated during the dosing phase using the Snow scoring method twice weekly. […]
The time from administration to the first occurrence of a neurological function score ≥3.5 was defined as the time to onset of paralysis. The mean time to onset of paralysis of animals was calculated. […] The paralysis delay rate for each drug group was also calculated according to the following formula:
The time from administration to the first occurrence of a neurological function score ≥3.5 was defined as the time to onset of paralysis. The mean time to onset of paralysis of animals was calculated. […]

[4] = system: SOD1-G93A transgenic mice; assay: Compound muscle action potential electrophysiology in SOD1-G93A transgenic mice; conditions: Riluzole 0.02 g/kg gavage, 30 days
Protocol: • 1.3.1 Animal Strain: B6SJL-Tg (SOD1-G93A) 1 Gur/J (Stock Number: 002726) provided by The Jackson Laboratory (United States). […] Both males and females were included. • 1.3.4 Animal Age: 7-8 weeks old. • 1.3.5 Animal Weight: At the start of dosing the body weight of male mice was 23.9-31.3 g, and the body weight of female mice was 17.7-25.4 g. • 1.3.6 Animal Source: Purchased from The Jackson Laboratory (United States). Breeding was conducted by Jiangsu GemPhanmatech Co., Ltd. • 1.3.7 Animal Certification of Quality, issuing authority, and receipt date: Certification number 320727210100609023. License number SCXK (Jiangsu) 2018-0008. Issuing authority: Jiangsu GemPharmatech Co., Ltd. Receipt date: Oct. 13, 2021. • 1.3.8 Feeding Conditions: Mice were reared in cages at the Innovative Drug Evaluation Center of Hebei Research Institute of Integrated Traditional Chinese and Western Medicine. License Number: SYXK (Hebei) 2020-006. Lighting: 12 h/day. Temperature: 20-26° C. Relative Humidity: 40%-70%. • 1.3.9 Quarantine Process: Animals were subjected to adaptive feeding for at least 5 days. […] Experimental Animal Production License Number: SCXK (Beijing) 2019-0003. Product Batch Number: 21073213. Expiration date: 2022 Jan. 3. • 1.3.11 Water: Clean water prepared by the ROB-B drinking water system for laboratory animal was provided, and filled in water bottles for free drinking. The drinking water was detected annually for all indicators, including mainly microbiological indicators, toxicological indicators, sensory characteristics, and general chemical parameters, and the detection was commissioned to a qualified institution. Microbial limit detection was performed every 2 months, which was commissioned to the Quality Control Department of Shijiazhuang Yiling Pharmaceutical Co., Ltd. The detection reports were stored by the animal department and archived annually. • 1.3.12 Bedding: Corn cob bedding (common grade) provided by Beijing Keao Xieli Feed Co., Ltd., was sterilized by high temperature and high pressure before use. Experimental Animal Production License Number: SCXK (Beijing) 2020-0010. Batch Number: 21099811. • 1.3.13 Marking: Mice were marked with ear tags, provided by Globalebio (Beijing) Technology Co., Ltd.
as §1
The drug was orally administered via gavage, consistent with the clinically recommended oral administration.
The administration dose for mice was 10 times the clinical dose, approximately 0.02 g/kg. The used administration volume was 10 ml/kg and administration concentration was 0.02 g/10 ml. […] During the preparation, one tablet was taken, ground with sterile injectable water and adjusted to a final volume of 25 ml. The obtained liquor can be used based on the number of animals.
The proposed clinical dose of TCM-073 was 18 g of raw drug/day. This test set three doses: low dose (1.5 g raw drug/kg), medium dose (3.0 g raw drug/kg), and high dose (6.0 g raw drug/kg), corresponding to 5, 10, and 20 times the clinical dose, respectively (See Table 14 for details). An appropriate amount of the drug was weighed and ground using sterile injectable water as the solvent to prepare high, medium, and low doses.
as §2
Based on preliminary experimental experience, literature review, and the disease characteristics of this mouse strain, the administration was started when the mice were 70 days old. […]

[5] = system: SOD1-G93A transgenic mice; assay: Immunofluorescence of gastrocnemius muscle and spinal cord, SOD1-G93A transgenic mice; conditions: vs model control; Riluzole 0.02 g/kg; TCM-073 each administration group (1.5, 3.0, 6.0 g raw drug/kg); 30 days
Protocol: as §1, §2
(§3) After 30 days of administration, electrophysiological measurements were performed, and tissue material was collected for subsequent detections. • 2.7.1 Electrophysiological parameters
Based on the amount of spinal cord and muscle tissues harvested from mice, neuromuscular junction, stem cell regeneration, microglial senescence and degree of myelin and neuronal damage and repair were detected. For example, the muscular presynaptic marker (synaptotagmin-2) and the acetylcholine receptor (AChR) marker (α-BTX) were co-stained, the satellite cell marker (Pax7) and laminin 2a were co-stained, the myelin marker (myelin basic protein, MBP) was stained, and the neuronal marker (beta-III Tubulin, also known as Tuj-1) was stained. • 2.7.5 Molecular biological indicators
The muscular presynaptic marker (synaptotagmin-2) and acetylcholine receptor (AChR) marker (α-BTX) of the gastrocnemius muscle were detected by the immunofluorescence.
The satellite cell marker (Pax7) and laminin 2α of the gastrocnemius muscle were detected by the immunofluorescence.
The myelin marker (myelin basic protein, MBP) of the spinal cord was detected by the immunofluorescence.
The neuronal marker (beta-III Tubulin, also known as Tuj-1) of the spinal cord was detected by the immunofluorescence.

[6] = system: SOD1-G93A transgenic mice; assay: HE staining of sciatic nerve, lesion grading, SOD1-G93A transgenic mice; parameters: key to Axonal degeneration with myelin degeneration, lesion grade of individual animal: mild (+); moderate (++); moderately severe (+++); severe (++++); conditions: for Lesion score (divided by gender): median of lesion grade points; for Axonal degeneration with myelin degeneration, lesion grade of individual animal: sciatic nerve HE, individual animals, listed as Positive drug control group
Protocol: as §1, §2, §3
HE staining was carried out to observe gastrocnemius muscle and sciatic nerve. Toluidine blue staining was carried out to observe the morphology and number of motor neurons in the spinal cord. • 2.7.4 Immunofluorescence

[7] = system: SOD1-G93A transgenic mice; assay: Immunoblotting of MBP and SV2A in spinal cord, SOD1-G93A transgenic mice; conditions: Riluzole 0.02 g/kg gavage, 30 days, negative control 1.00
Protocol: as §1, §2, §3
Based on the amount of spinal cord tissue harvested from mice, myelin- and synapse-related molecular biological indicators were detected. The myelin- and synapse-related indicators included myelin basic protein (MBP) and synaptic vesicle protein 2A(SV2A).
Based on the amount of spinal cord tissue harvested from mice, myelin- and synapse-related molecular biological indicators, including myelin basic protein (MBP) and synaptic vesicle protein 2A (SV2A), were detected.

[8] = system: SOD1-G93A transgenic mice; assay: Hanging test in SOD1-G93A transgenic mice; conditions: Riluzole 0.02 g/kg gavage, 90 second cut-off
Protocol: as §1, §2
• 2.6.1 The tail suspension test was carried out to observe straightening reflex of limbs. […] The scoring criteria are as follows: • 0 points—No flexion of the hindlimbs observed. • 1 point—Flexion observed in unilateral hindlimb, with no obvious flexion in the other. • 2 points—Flexion observed in bilateral hindlimbs. Mice with a score of 2 points were considered to be in the symptomatic phase. The tail suspension test was stopped when all ALS mice reached a score of 2 points. • 2.6.2 Hanging Test: The mouse was placed on a 3-mesh screen. The screen was then rapidly inverted, causing the mouse to hang upside down, and the timer was started. A 90 second cut-off time was set. The mice with a hanging time of less than 90 seconds were noted, and the actual time they remained hanged was recorded. The hanging test was discontinued upon the occurrence of death in ALS mice. […] The severity of this abnormality correlates with the degree of muscle atrophy and loss of muscle strength. In this study, the onset of disease in transgenic mice was determined based on the results of the tail suspension test. Additionally, guided by literature review and previous experimental experience, each mouse was sequentially evaluated by both the tail suspension and hanging tests.

[9] = Riluzole 0.02 g/kg gavage, female
[10] = Riluzole 0.02 g/kg gavage, male

Nc1nc2ccc(OC(F)(F)F)cc2s1 [Riluzole]
Neurological function score ([1]; 31 d of administration): 2.2 ± 0.4 | Neurological function score ([1]; 34 d of administration): 2.2 ± 0.4 | Neurological function score ([1]; 39 d of administration): 2.2 ± 0.5 | Neurological function score ([1]; 42 d of administration): 2.3 ± 0.5 | Neurological function score ([1]; 46 d of administration): 2.2 ± 0.4 | inhibition at 20 mg/kg [2]: 20% | Time to onset of paralysis ([3]; female): 139.6 ± 5.7 days | Time to onset of paralysis ([3]; male): 129.2 ± 18.9 days | Peak value of action potential ([4]; female): 10.4 ± 4.0 | Time course within region of interest of action potential ([4]; female): 0.0018 ± 0.0002 | Wave amplitude of action potential ([4]; female): 14.8 ± 5.6 | Peak value of action potential ([4]; male): 8.8 ± 2.2 | Time course within region of interest of action potential ([4]; male): 0.0016 ± 0.0001 | Wave amplitude of action potential ([4]; male): 11.2 ± 3.9 | Peak value of action potential ([4]; no division by gender): 9.6 ± 3.3 | Time course within region of interest of action potential ([4]; no division by gender): 0.0017 ± 0.0002 | Wave amplitude of action potential ([4]; no division by gender): 13.0 ± 5.0 | Co-localization degree of synaptotagmin-2 and α-BTX (neuromuscular junction), gastrocnemius muscle [5]: increased the co-localization degree of neuromuscular junctions | MBP (myelin marker) expression in spinal cord, immunofluorescence [5]: increased the expression levels of the myelin marker | Number of Pax7-positive satellite cells in the gastrocnemius muscle [5]: increased the number of positive satellite cells in the gastrocnemius muscle | Tuj-1 (neuronal marker) expression in spinal cord, immunofluorescence [5]: increased the expression levels of the myelin marker and neuronal marker | Sciatic nerve axonal degeneration with myelin degeneration, number of samples per lesion grade ([6]; Riluzole 0.02 g/kg gavage, 6 samples): myelin degeneration (1 sample: +++, 4 samples: ++, 1 sample: +). | Lesion score (divided by gender) [6, 9]: 2 | Lesion score (divided by gender) [6, 10]: 2 | Group Score (lesion) ([6]; Riluzole 0.02 g/kg gavage, median of lesion grade points of the group): 2 | Axonal degeneration with myelin degeneration, lesion grade of individual animal [6, 9]: + and ++ (2×) | Axonal degeneration with myelin degeneration, lesion grade of individual animal [6, 10]: ++ (2×) and +++ | Sciatic nerve pathological changes (HE staining) compared to the model control group ([6]; Riluzole 0.02 g/kg, TCM-073 high dose 6.0 g raw drug/kg): slightly milder | MBP content in spinal cord [7]: 0.99 ± 0.62 | SV2A content in spinal cord [7]: 0.41 ± 0.15 | Hanging time ([8]; 31 d of administration): 63.3 ± 29.2 s | Hanging time ([8]; 34 d of administration): 57.6 ± 2.6 s | Hanging time ([8]; 39 d of administration): 46.5 ± 29.8 s | Hanging time ([8]; 42 d of administration): 40.8 ± 30.7 s | Hanging time ([8]; 46 d of administration): 33.8 ± 27.2 s
